Columns and labels:
pigs = details: phosphorus digestibility, Veevoedertabel 2000; cited from earlier work
[1] = Phosphorus solubility in water (Quimociac method); assay type: physicochemical; details: tricalcium phosphate experiment, absolute content
Protocol: (§1) At room temperature, 3 g sample and 300 ml distilled water have been agitated for 30 min. Subsequently the solution has been diluted to 500 ml and stirred. Then the solution has been filtered to remove the remaining solids. The Ca^2+ content of the solution was determined flame photometrically by means of ICP, and the amount of dissolved phosphorus was determined by the Quimociac method. These two methods are well known in the technical field.

[2] = Calcium solubility in water (ICP); assay type: physicochemical; details: tricalcium phosphate experiment, absolute content
Protocol: as §1

Molecule | Dig. Coeff. for pigs Average (pigs) | % P water sol. [1] [%] | % Ca water sol. [2] [%]
Dicalcium phosphate, dihydrate | 0.70 | – | –
hydroxyl apatite [Hydroxyl apatite (ref)] | – | <0.1 | <0.1
O=P([O-])([O-])O.[Ca+2] [Dicalcium phosphate, anhydrate] | 0.64 | – | –
